# Experiment: Solubility
# Type: physicochemical
# Conditions: for solubility in water: H2O
solubility in water,solubility in water (listed as anthracene derivative of Examples 1 and 2),"solubility in methanol (methanol, with respect to observing excimer characteristics)",maximum solubility (PBS (pH 7.4)) [µM],SMILES,"solubility in organic solvents (CH2Cl2, CHCl3, THF, CH3OH, C2H5OH)"
Limited solubility in H2O,insoluble in water,insufficiently soluble,–,C=C(C)C(=O)NCCCN(Cc1ccccc1B(O)O)Cc1c2ccccc2cc2ccccc12 [9-[[N-methacryloylaminopropyl-N-(o-boronobenzyl)amino]methyl]anthracene],"soluble in CH2Cl2, CHCl3, THF, CH3OH, and C2H5OH"
–,–,–,1000,"C=C(C)C(=O)NCCCN(Cc1ccc(CN(CCCNC(=O)C(=C)C)Cc2ccccc2B2OCC(C)(C)CO2)cc1)Cc1ccccc1B1OCC(C)(C)CO1 [bis boronic acid monomer, α,α′-bis[N-[2-(5,5-dimethyl-1,3,2]dioxaborinan-2-yl)-benzyl]-N-[3-(methacrylamido)propylamino]-1,4-xylene]",–

# Source: patent US7939332B2, “Detection of analytes in aqueous environments” (Sensors for Medicine and Science, Inc., priority 2000, dated 2011)
